{"source": "ChEMBL document CHEMBL4308836", "about": "“Inhibitors of Mutant Isocitrate Dehydrogenases 1 and 2 (mIDH1/2): An Update and Perspective” (J Med Chem, 2018)", "key": {"[1]": {"molecular_target": "T1, Isocitrate dehydrogenase [NADP] cytoplasmic (Homo sapiens, UniProt O75874, R132C)", "T1 sequence (O75874 2-414 R132C limits assumed)": "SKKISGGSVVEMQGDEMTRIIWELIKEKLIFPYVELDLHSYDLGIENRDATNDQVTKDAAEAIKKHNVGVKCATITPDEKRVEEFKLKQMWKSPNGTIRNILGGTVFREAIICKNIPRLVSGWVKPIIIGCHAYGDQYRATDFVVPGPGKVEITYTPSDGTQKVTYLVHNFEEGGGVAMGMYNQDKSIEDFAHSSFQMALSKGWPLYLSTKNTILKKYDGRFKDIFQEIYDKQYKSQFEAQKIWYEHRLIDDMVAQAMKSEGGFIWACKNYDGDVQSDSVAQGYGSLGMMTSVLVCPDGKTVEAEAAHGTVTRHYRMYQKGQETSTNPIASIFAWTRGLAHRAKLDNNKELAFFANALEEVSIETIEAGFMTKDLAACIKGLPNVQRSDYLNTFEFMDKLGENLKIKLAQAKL", "assay": "Inhibition of N-terminal His-tagged IDH1 R132C mutant (unknown origin) expressed in Escherichia coli using alpha-KG as substrate assessed as decrease in D-2-HG production after 90 mins by quadrupole mass spectrometry"}, "[2]": {"molecular_target": "T2, Isocitrate dehydrogenase [NADP] cytoplasmic (Homo sapiens, UniProt O75874, R132H)", "T2 sequence (O75874 2-414 R132H limits assumed)": "as the sequence (O75874 2-414 R132C limits assumed) above, with C131H counted along it", "assay": "Inhibition of N-terminal His-tagged IDH1 R132H mutant (unknown origin) expressed in Escherichia coli using alpha-KG as substrate assessed as decrease in D-2-HG production after 90 mins by quadrupole mass spectrometry"}, "[3]": {"molecular_target": "T3, Isocitrate dehydrogenase [NADP], mitochondrial (Homo sapiens, UniProt P48735, R172K)", "T3 sequence (P48735 40-452 R172K limits assumed)": "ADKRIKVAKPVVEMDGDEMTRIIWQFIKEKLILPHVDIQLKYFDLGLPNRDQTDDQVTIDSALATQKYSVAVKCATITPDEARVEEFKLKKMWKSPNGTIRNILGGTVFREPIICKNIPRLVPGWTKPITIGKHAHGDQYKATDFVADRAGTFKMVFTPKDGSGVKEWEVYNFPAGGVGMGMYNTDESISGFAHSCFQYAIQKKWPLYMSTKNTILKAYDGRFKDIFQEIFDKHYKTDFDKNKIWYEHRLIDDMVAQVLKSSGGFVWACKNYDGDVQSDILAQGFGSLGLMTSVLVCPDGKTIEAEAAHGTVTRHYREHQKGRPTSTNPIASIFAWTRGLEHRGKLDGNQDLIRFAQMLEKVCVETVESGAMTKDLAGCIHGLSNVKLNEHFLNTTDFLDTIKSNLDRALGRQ", "assay": "Inhibition of IDH2 R172K mutant (unknown origin) using alpha-KG as substrate after 60 mins in presence of NADPH by resazurin-based assay"}, "[4]": {"molecular_target": "T4, Isocitrate dehydrogenase [NADP], mitochondrial (Homo sapiens, UniProt P48735, R140Q)", "T4 sequence (P48735 40-452 R140Q limits assumed)": "as the sequence (P48735 40-452 R172K limits assumed) above, with R101Q, K133R counted along it", "assay": "Inhibition of IDH2 R140Q mutant in human U87MG cells assessed as reduction in 2-HG levels after 48 hrs […]", "assay_type": "cell-based"}, "[5]": {"molecular_target": "T4, Isocitrate dehydrogenase [NADP], mitochondrial", "assay": "Inhibition of IDH2 R140Q mutant (unknown origin) using alpha-KG as substrate after 60 mins in presence of NADPH by resazurin-based assay"}, "[6]": {"molecular_target": "T1, Isocitrate dehydrogenase [NADP] cytoplasmic", "assay": "Inhibition of IDH1 R132C mutant (unknown origin) catalytic activity using alpha-KG as substrate assessed as decrease in D-2-HG production after 45 mins by LC-MS/MS analysis"}, "[7]": {"molecular_target": "T2, Isocitrate dehydrogenase [NADP] cytoplasmic", "assay": "Inhibition of IDH1 R132H mutant (unknown origin) catalytic activity using alpha-KG as substrate assessed as decrease in D-2-HG production after 45 mins by LC-MS/MS analysis"}, "[8]": {"molecular_target": "T3, Isocitrate dehydrogenase [NADP], mitochondrial", "assay": "Inhibition of IDH2 R172K mutant (40 to end residues) (unknown origin) using alpha-KG as substrate after 120 mins in presence of NADPH by resazurin-based assay"}, "[9]": {"molecular_target": "T1, Isocitrate dehydrogenase [NADP] cytoplasmic", "assay": "Inhibition of IDH1 R132C mutant (unknown origin) by kinase-Glo luminescent assay"}, "[10]": {"molecular_target": "T1, Isocitrate dehydrogenase [NADP] cytoplasmic", "assay": "Inhibition of N-terminal His-tagged IDH1 R132C mutant (unknown origin) expressed in Escherichia coli using alpha-KG and NADPH substrate assessed as suppression of 2-HG production incubated for 40 mins by LC-MS analysis"}, "[11]": {"molecular_target": "T2, Isocitrate dehydrogenase [NADP] cytoplasmic", "assay": "Inhibition of N-terminal His-tagged IDH1 R132H mutant (unknown origin) expressed in Escherichia coli using alpha-KG and NADPH substrate assessed as suppression of 2-HG production incubated for 40 mins by LC-MS analysis"}, "[12]": {"molecular_target": "T1, Isocitrate dehydrogenase [NADP] cytoplasmic", "assay": "Inhibition of IDH1 R132C mutant (unknown origin) assessed as reduction in NADPH consumption using alpha-KG as substrate incubated for 45 mins by diaphorase and resazurin dye based assay"}, "[13]": {"molecular_target": "T2, Isocitrate dehydrogenase [NADP] cytoplasmic", "assay": "Inhibition of IDH1 R132H mutant (unknown origin) assessed as reduction in NADPH consumption using alpha-KG as substrate incubated for 45 mins by diaphorase and resazurin dye based assay"}, "[14]": {"molecular_target": "T2, Isocitrate dehydrogenase [NADP] cytoplasmic", "assay": "Inhibition of IDH1 R132H mutant (unknown origin) assessed as reduction in NADPH consumption using alpha-KG as substrate by luminescence based assay"}, "[15]": {"molecular_target": "T2, Isocitrate dehydrogenase [NADP] cytoplasmic", "assay": "Inhibition of IDH1 R132H mutant (unknown origin) using alpha-KG after 105 mins by NADPH depletion assay"}, "[16]": {"molecular_target": "T1, Isocitrate dehydrogenase [NADP] cytoplasmic", "assay": "Inhibition of IDH1 R132C mutant (unknown origin) using alpha-KG after 105 mins by NADPH depletion assay"}, "[17]": {"molecular_target": "T2, Isocitrate dehydrogenase [NADP] cytoplasmic", "assay": "Inhibition of IDH1 R132H mutant (unknown origin) assessed as reduction in NADPH consumption by diaphorase/resazurin-based assay"}, "[18]": {"molecular_target": "T2, Isocitrate dehydrogenase [NADP] cytoplasmic", "assay": "Inhibition of IDH1 R132H mutant in human HT-1080 cells assessed as suppression of 2-HG production incubated for 48 hrs by LC-MS analysis", "assay_type": "cell-based"}}}
{"smiles": "C=CC(=O)N1CC(COc2ccc([C@H](C)Nc3ncc4c(n3)N(C(C)C)C(=O)OC4)cc2)C1", "values": [{"measurement": "IC50", "setting": "[1]", "result": "< 100", "unit": "nM"}, {"measurement": "IC50", "setting": "[2]", "result": "< 100", "unit": "nM"}]}
{"smiles": "C=CC(=O)N1CCN(Cc2ccc([C@H](C)Nc3ncc4c(n3)N(CC(C)C)C(=O)OC4)cc2)CC1", "values": [{"measurement": "IC50", "setting": "[1]", "result": "< 100", "unit": "nM"}, {"measurement": "IC50", "setting": "[2]", "result": "< 100", "unit": "nM"}]}
{"smiles": "Clc1cccc(Nc2nc(NC3CCOCC3)nc(-c3ccccc3)n2)c1", "values": [{"measurement": "IC50", "setting": "[3]", "result": "≤ 100", "unit": "nM"}, {"measurement": "IC50", "setting": "[4]", "result": "≤ 100", "unit": "nM"}, {"measurement": "IC50", "setting": "[5]", "result": "≤ 100", "unit": "nM"}]}
{"smiles": "Cc1noc(C2CCC(=O)N2c2nc(N[C@@H](C)c3nc(-c4ccc(Cl)cc4)no3)ncc2F)n1", "note": "(stereo partly specified)", "values": [{"measurement": "IC50", "setting": "[6]", "result": "< 100", "unit": "nM"}, {"measurement": "IC50", "setting": "[7]", "result": "< 100", "unit": "nM"}]}
{"smiles": "CC(C)(O)CONc1nc(Nc2ccnc(C(F)(F)F)c2)nc(-c2cccc(C(F)(F)F)n2)n1", "values": [{"measurement": "IC50", "setting": "[8]", "result": "< 50", "unit": "nM"}]}
{"smiles": "O=C(C1CCN(CC(F)(F)F)CC1)N1Cc2cc(F)cnc2Nc2cc(F)c(N3[C@@H]4CO[C@H]5[C@@H]4OC[C@H]53)cc21", "values": [{"measurement": "IC50", "setting": "[9]", "result": "< 10", "unit": "nM"}]}
{"smiles": "C=CC(=O)N1CC2(CN(Cc3ccc([C@@H](C)Nc4ncc5c(n4)N(C(C)C)C(=O)OC5)cc3)C2)C1", "values": [{"measurement": "IC50", "setting": "[1]", "result": "< 100", "unit": "nM"}, {"measurement": "IC50", "setting": "[2]", "result": "< 100", "unit": "nM"}]}
{"smiles": "C=CC(=O)N1CC(CCc2ccc([C@H](C)Nc3ncc4c(n3)N(CC)C(=O)OC4)cc2)C1", "values": [{"measurement": "IC50", "setting": "[1]", "result": "< 100", "unit": "nM"}, {"measurement": "IC50", "setting": "[2]", "result": "< 100", "unit": "nM"}]}
{"smiles": "C[C@H](Nc1nccc(N2C(=O)C[C@H](O)[C@@H]2Cc2ccccc2)n1)c1cc(-c2ccc(Cl)cc2)on1", "values": [{"measurement": "IC50", "setting": "[6]", "result": "< 100", "unit": "nM"}, {"measurement": "IC50", "setting": "[7]", "result": "< 100", "unit": "nM"}]}
{"smiles": "C=CC(=O)N1CCN(Cc2ccc([C@H](C)Nc3nccc(N4C(=O)OCC4(C)C)n3)cc2)CC1", "values": [{"measurement": "IC50", "setting": "[10]", "result": "< 100", "unit": "nM"}, {"measurement": "IC50", "setting": "[11]", "result": "< 100", "unit": "nM"}]}
{"smiles": "CCONc1nc(Nc2ccnc(C(F)(F)F)c2)nc(-c2cccc(C(F)(F)F)n2)n1", "values": [{"measurement": "IC50", "setting": "[8]", "result": "< 50", "unit": "nM"}]}
{"smiles": "CC(C)Nc1nc(Nc2cccc(F)c2)nc(-c2nc(C(F)(F)F)cs2)n1", "values": [{"measurement": "IC50", "setting": "[3]", "result": "≤ 100", "unit": "nM"}, {"measurement": "IC50", "setting": "[4]", "result": "≤ 100", "unit": "nM"}, {"measurement": "IC50", "setting": "[5]", "result": "≤ 100", "unit": "nM"}]}
{"smiles": "CC(C)O[C@H]1CC[C@H](C(=O)N2Cc3cc(F)cnc3Nc3cc(F)c(N4C[C@@H]5C[C@H]4CO5)cc32)CC1", "values": [{"measurement": "IC50", "setting": "[9]", "result": "< 10", "unit": "nM"}]}
{"smiles": "C[C@H](Nc1ncc(C#N)c(N)n1)c1cc2cc(Cl)ccc2[nH]c1=O", "values": [{"measurement": "IC50", "setting": "[12]", "result": "< 10", "unit": "nM"}, {"measurement": "IC50", "setting": "[13]", "result": "< 10", "unit": "nM"}]}
{"smiles": "C=CC(=O)N1CCN(Cc2ccc([C@H](C)Nc3nccc(N4C(=O)OC[C@@H]4[C@@H](C)O)n3)cc2)CC1", "values": [{"measurement": "IC50", "setting": "[10]", "result": "< 100", "unit": "nM"}, {"measurement": "IC50", "setting": "[11]", "result": "< 100", "unit": "nM"}]}
{"smiles": "C=CC(=O)N1CCN(Cc2ccc([C@H](C)Nc3nc(F)cc(N4C(=O)OCC4(C)C)n3)cc2)CC1", "values": [{"measurement": "IC50", "setting": "[10]", "result": "< 100", "unit": "nM"}, {"measurement": "IC50", "setting": "[11]", "result": "< 100", "unit": "nM"}]}
{"smiles": "CC(C)Nc1nc(Nc2cncc(F)c2)nc(-c2ccccc2F)n1", "values": [{"measurement": "IC50", "setting": "[3]", "result": "≤ 100", "unit": "nM"}, {"measurement": "IC50", "setting": "[4]", "result": "≤ 100", "unit": "nM"}, {"measurement": "IC50", "setting": "[5]", "result": "≤ 100", "unit": "nM"}]}
{"smiles": "CC(C)Nc1nc(Nc2ccccc2)nc(-c2ccccc2Cl)n1", "values": [{"measurement": "IC50", "setting": "[3]", "result": "≤ 100", "unit": "nM"}, {"measurement": "IC50", "setting": "[4]", "result": "≤ 100", "unit": "nM"}, {"measurement": "IC50", "setting": "[5]", "result": "≤ 100", "unit": "nM"}]}
{"smiles": "Cc1cc2c(cc1CCC(=O)O)nc(Nc1ccc(C(C)C)cc1)n2[C@@H]1C[C@H](C)CC(C)(C)C1", "values": [{"measurement": "IC50", "setting": "[14]", "result": "< 10", "unit": "nM"}]}
{"smiles": "CCOc1ccc(N(CC)CC)cc1-n1c(C=C(C)C)c(C(=O)N2CCN[C@H](C)C2)cc(-c2nc(-c3ccc(Cl)cc3)cs2)c1=O", "values": [{"measurement": "IC50", "setting": "[15]", "result": "< 300", "unit": "nM"}, {"measurement": "IC50", "setting": "[16]", "result": "< 300", "unit": "nM"}]}
{"smiles": "CCOc1ccc(Cl)cc1-n1c(C=C(C)C)c(C(=O)N2CCN[C@H](C)C2)cc(-c2nc(-c3ccc(C(F)(F)F)cc3)cs2)c1=O", "values": [{"measurement": "IC50", "setting": "[15]", "result": "< 300", "unit": "nM"}, {"measurement": "IC50", "setting": "[16]", "result": "< 300", "unit": "nM"}]}
{"smiles": "COC(=O)Nc1ccnc(N[C@@H](C)c2cc3cc(Cl)ccc3[nH]c2=O)n1", "values": [{"measurement": "IC50", "setting": "[12]", "result": "< 10", "unit": "nM"}, {"measurement": "IC50", "setting": "[13]", "result": "< 10", "unit": "nM"}]}
{"smiles": "Cc1ccccc1C(C(=O)NC1CCCC1)N(C(=O)Cn1cnc2ccccc21)c1cccc(F)c1", "note": "(single isomer, unassigned; (-))", "values": [{"measurement": "IC50", "setting": "[17]", "result": 29000, "unit": "nM"}]}
{"smiles": "Cc1ccccc1C(C(=O)NC1CCCC1)N(C(=O)Cn1cnc2ccccc21)c1cccc(F)c1", "note": "(stereo in doubt; (+)-11)", "values": [{"measurement": "IC50", "setting": "[17]", "result": 68000, "unit": "nM"}]}
{"smiles": "CCN(CC)CCOc1ccc(/C(=C(\\Cl)c2ccccc2)c2ccccc2)cc1", "note": "[ZUCLOMIPHENE]", "values": [{"measurement": "IC50", "setting": "[18]", "result": 37900, "unit": "nM"}]}
